This note sets out measurements from ChEMBL document CHEMBL2321756, “From a cytotoxic agent to the discovery of a novel antimalarial agent” (Bioorg Med Chem Lett, 2013).

Each structure is given as a SMILES string.

Data set [1] has as its system Plasmodium falciparum. In words: Antimalarial activity against Plasmodium falciparum C235 containing mdr1 transporter gene assessed as growth inhibition after 72 hrs by SYBR Green 1-based fluorescence assay. Conditions: C235, MDR1, 72 h. Format: functional, organism-based.
Data set [2] in a line: Drug uptake in Wistar rat RBC at 25 ug/mL. The note with it: erythrocyte. The data set is classed as ADME, cell-based.
Data set [3] has as its system Erythrocyte. In words: Reduction of glutathione level in Wistar rat RBC at 25 ug/mL measured at 60 mins relative to untreated control. The data set is classed as functional. More on the design: scale not given: the % may be the effect or the level left.
Data set [4] relates to Erythrocyte. In words: Reduction of glutathione level in Wistar rat RBC at 25 ug/mL measured at 5 mins relative to untreated control. More on the design: scale not given: the % may be the effect or the level left. Format: functional.
Data set [5] is described as follows: Metabolic stability in human Caco2/TC7 cells at 50 uM up to 2 hrs. Format: ADME, cell-based. Conditions: caco-2, 2 h.
Data set [6] concerns Plasmodium falciparum. The experiment in a line: Antimalarial activity against Plasmodium falciparum D6 assessed as growth inhibition after 72 hrs by SYBR Green 1-based fluorescence assay. The data set is classed as functional, organism-based. Conditions: D6, 72 h.
Data set [7] deals with Erythrocyte. In words: Reduction of glutathione level in Wistar rat RBC at 25 ug/mL measured at 90 mins relative to untreated control. Format: functional. Set-up: scale not given: the % may be the effect or the level left.
Data set [8] has as its system Erythrocyte. The experiment in a line: Reduction of glutathione level in Wistar rat RBC at 25 ug/mL measured at 120 mins relative to untreated control. The data set is classed as functional. More on the design: scale not given: the % may be the effect or the level left.
A short description of data set [9]: Apparent permeability across apical to basolateral side in human Caco2/TC7 cells at 50 uM after 2 hrs. The data set is classed as ADME, cell-based. The note with it: Caco-2.
The subject of data set [10] is Erythrocyte. In words: Reduction of glutathione level in Wistar rat RBC at 25 ug/mL measured at 30 mins relative to untreated control. The data set is classed as functional. More on the design: scale not given: the % may be the effect or the level left.
The test system of data set [11] is Erythrocyte. In words: Reduction of glutathione level in Wistar rat RBC at 25 ug/mL measured at 15 mins relative to untreated control. Set-up: scale not given: the % may be the effect or the level left. The data set is classed as functional.
Data set [12] is described as follows: Drug uptake in Wistar rat RBC at 25 ug/mL up to 2 hrs. The data set is classed as ADME, cell-based. Conditions: erythrocyte.
Data set [13] relates to Plasmodium falciparum. In words: Selectivity ratio of IC50 for Plasmodium falciparum C235 to IC50 for Plasmodium falciparum D6. Format: functional.
Data set [14] is described as follows: Apparent permeability across apical to basolateral side in human Caco2/TC7 cells after 2 hrs. The data set is classed as ADME, cell-based. The note with it: Caco-2. For orientation: Caco-2 monolayers are a common model of the intestinal barrier.

Take `Cl.O=C1/C(=C/c2ccc(Cl)cc2)CN(C(=O)c2ccc(OCCN3CCOCC3)cc2)C/C1=C\c1ccc(Cl)cc1`: the figures for the concentration for half-maximal inhibition (IC50) with Plasmodium falciparum [1] and in the data set on Plasmodium falciparum [6] were 1970 nM and 600 nM, respectively. For the same molecule, the Drug uptake in data set [2] is recorded as 75%; in [12], 80%. Also, the Activity amounted to 8.95% with Erythrocyte [3]; 12.6% with Erythrocyte [4]; 7.51% in the data set on Erythrocyte [7]; 10.9% in the data set on Erythrocyte [8]; 12.9% with Erythrocyte [10]; 12.3% in the data set on Erythrocyte [11]. Further, the Stability result in data set [5] is “Stable”. The Papp A→B (as a rule, how fast a substance crosses the layer from the apical side) at 2 h, 50 µM in data set [9] was found to be 1.2 ×10⁻⁶ cm/s. In the data set on Plasmodium falciparum [13], the “Ratio IC50” value is on record as 3.3.
On to `O[C@@H](c1cc(C(F)(F)F)nc2c(C(F)(F)F)cccc12)[C@H]1CCCCN1` [(S,R)-MEFLOQUINE], for which the IC50 – broadly, the concentration needed to halve the response being measured – in the data set on Plasmodium falciparum [1] came out at 50 nM.
As for `COCCc1ccc(OCC(O)CNC(C)C)cc1` (stereo not given) [METOPROLOL], the Papp A→B at 2 h in data set [14] was found to be 29.9 ×10⁻⁶ cm/s.
